The values below come from ChEMBL document CHEMBL1149358, “Synthesis and dipeptidyl peptidase inhibition of N-(4-substituted-2,4-diaminobutanoyl)piperidines” (Bioorg Med Chem Lett, 2006).

What is called IC50 is the point on the concentration scale where inhibition reaches its midpoint. Read a high IC50 as weaker potency in that assay. The Ki is a dissociation constant, usually derived from enzyme kinetics or from competition with a known ligand. Low values mean higher affinity, high ones lower affinity.

SMILES strings stand for the structures.

One experiment deals with Dipeptidyl peptidase 8 (Homo sapiens, UniProt Q6V1X1). The experiment can be described thus: Inhibition of DPP8.
Sequence of Dipeptidyl peptidase 8 (Q6V1X1 whole entry): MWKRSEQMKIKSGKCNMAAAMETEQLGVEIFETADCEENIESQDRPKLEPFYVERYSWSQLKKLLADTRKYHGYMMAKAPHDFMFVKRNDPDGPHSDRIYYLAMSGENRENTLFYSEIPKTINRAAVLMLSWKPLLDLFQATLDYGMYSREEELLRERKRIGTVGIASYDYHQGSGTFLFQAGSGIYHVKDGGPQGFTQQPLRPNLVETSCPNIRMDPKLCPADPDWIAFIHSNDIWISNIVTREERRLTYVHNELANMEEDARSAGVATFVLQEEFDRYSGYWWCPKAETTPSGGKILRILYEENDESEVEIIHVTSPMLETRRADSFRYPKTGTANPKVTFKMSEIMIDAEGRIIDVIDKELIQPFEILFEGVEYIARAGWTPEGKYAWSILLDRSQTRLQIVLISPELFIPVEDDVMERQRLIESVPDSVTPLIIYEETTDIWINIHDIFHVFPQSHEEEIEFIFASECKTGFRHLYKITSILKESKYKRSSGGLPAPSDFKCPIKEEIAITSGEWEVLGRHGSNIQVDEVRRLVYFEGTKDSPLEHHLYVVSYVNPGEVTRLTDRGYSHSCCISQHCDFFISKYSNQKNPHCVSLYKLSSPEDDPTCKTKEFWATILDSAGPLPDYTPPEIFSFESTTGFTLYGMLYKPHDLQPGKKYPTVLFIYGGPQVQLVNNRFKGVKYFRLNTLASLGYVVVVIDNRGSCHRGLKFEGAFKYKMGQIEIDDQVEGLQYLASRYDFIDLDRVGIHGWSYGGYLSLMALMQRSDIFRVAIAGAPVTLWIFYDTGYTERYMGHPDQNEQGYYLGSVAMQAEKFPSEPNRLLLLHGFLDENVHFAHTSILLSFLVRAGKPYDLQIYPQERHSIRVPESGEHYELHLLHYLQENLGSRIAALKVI
Experiment [1] has as its target T1, Dipeptidyl peptidase 2 (Homo sapiens, UniProt Q9UHL4). The experiment can be described thus: Inhibition of DPP II.
A further experiment is filed under the species Homo sapiens. The experiment can be described thus: Selectivity for DPP2 over DPP8.
Another experiment has as its target Dipeptidyl peptidase 4 (Homo sapiens, UniProt P27487). The experiment can be described thus: Inhibition of DPP4.
Experiment [2] has as its target T1, Dipeptidyl peptidase 2. The experiment can be described thus: Inhibition of DPP2.

Sequence of Dipeptidyl peptidase 4 (P27487 whole entry): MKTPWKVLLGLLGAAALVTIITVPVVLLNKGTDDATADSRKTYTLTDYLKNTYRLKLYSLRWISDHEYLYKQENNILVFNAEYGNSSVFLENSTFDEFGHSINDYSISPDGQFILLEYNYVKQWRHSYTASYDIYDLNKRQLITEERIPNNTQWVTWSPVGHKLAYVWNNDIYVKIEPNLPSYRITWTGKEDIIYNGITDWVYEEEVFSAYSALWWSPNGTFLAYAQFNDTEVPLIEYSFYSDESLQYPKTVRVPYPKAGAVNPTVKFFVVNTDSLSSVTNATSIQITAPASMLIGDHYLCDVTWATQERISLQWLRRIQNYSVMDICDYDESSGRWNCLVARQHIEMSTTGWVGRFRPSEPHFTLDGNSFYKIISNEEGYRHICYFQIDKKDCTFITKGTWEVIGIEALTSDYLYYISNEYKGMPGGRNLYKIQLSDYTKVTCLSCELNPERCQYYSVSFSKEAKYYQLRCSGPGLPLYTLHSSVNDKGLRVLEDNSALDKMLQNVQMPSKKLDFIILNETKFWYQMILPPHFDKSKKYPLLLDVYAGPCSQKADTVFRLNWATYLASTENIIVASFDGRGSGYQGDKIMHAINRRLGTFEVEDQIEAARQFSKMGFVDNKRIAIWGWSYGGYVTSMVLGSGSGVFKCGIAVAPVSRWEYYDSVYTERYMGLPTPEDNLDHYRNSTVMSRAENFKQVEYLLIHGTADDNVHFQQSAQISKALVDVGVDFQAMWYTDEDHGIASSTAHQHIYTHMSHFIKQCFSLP

With `N[C@@H](CCNCc1ccc(Cl)cc1)C(=O)N1CCCCC1`, the values for the half-maximal inhibitory concentration (IC50) on Dipeptidyl peptidase 8, on Dipeptidyl peptidase 4 and against Dipeptidyl peptidase 2 [2] were 142 µM, 196 µM and 0.00022 µM, respectively. Further, the Ki at Dipeptidyl peptidase 2 [1] amounted to 0.082 nM. The compound further had a Selectivity index in the experiment filed under Homo sapiens greater than 10000.

In the case of `N[C@@H](C[C@@H](Cc1ccccc1)NCc1ccc(Cl)cc1)C(=O)N1CCCCC1`, the IC50 on Dipeptidyl peptidase 8 was greater than 500 µM; on Dipeptidyl peptidase 4 it was greater than 125 µM.

As to `N[C@@H](C[C@H](Cc1ccccc1)NCc1ccc(Cl)cc1)C(=O)N1CCCCC1`, the IC50 was greater than 100 µM at Dipeptidyl peptidase 8 and greater than 125 µM at Dipeptidyl peptidase 4.

`C[C@H](C[C@H](N)C(=O)N1CCCCC1)NCc1ccc(Cl)cc1` showed an IC50 against Dipeptidyl peptidase 4 greater than 250 µM.

With `CC[C@@H](C[C@H](N)C(=O)N1CCCCC1)NCc1ccc(Cl)cc1`, the IC50 at Dipeptidyl peptidase 8 and against Dipeptidyl peptidase 4 was greater than 100 µM throughout.

Consider `CC(C)[C@@H](C[C@H](N)C(=O)N1CCCCC1)NCc1ccc(Cl)cc1`, for which the results for the IC50 at Dipeptidyl peptidase 8 and on Dipeptidyl peptidase 4 were greater than 100 µM and greater than 125 µM, respectively.

For `C[C@@H](C[C@H](N)C(=O)N1CCCCC1)NCc1ccc(Cl)cc1`, inhibition on Dipeptidyl peptidase 4 was half-maximal at 325 µM (IC50).

In the case of `CCC(C)[C@@H](C[C@H](N)C(=O)N1CCCCC1)NCc1ccc(Cl)cc1` (some centres not stated), the IC50 against Dipeptidyl peptidase 8 was greater than 100 µM; against Dipeptidyl peptidase 4, 234 µM.
